These are literature values, as cited in US20140171511A1, “Cough Reducing Product” (priority 2011, published 2014).

The conditions of data set [1]: inhaled capsaicin as research tool, past 2 decades.
The conditions of data set [2]: relative to capsaicin, used to calculate equivalent dose.
Data set [3] deals with IBS and gut pain sensitivity. Particulars: regular intake of capsaicin powder.

For `COc1cc(CNC(=O)CCCC/C=C/C(C)C)ccc1O` [Capsaicin, 8-Methyl-N-vanillyl-trans-6-nonenamide], the serious adverse reactions entry in data set [1] is “no serious adverse reactions reported”. The Typical equivalent strength in data set [2] is 100%. The “IBS and gut pain sensitivity” value in data set [3] is listed as “improvement”.
Consider `COc1cc(CNC(=O)CCCCCC(C)C)ccc1O` [Nordihydrocapsaicin], for which, in data set [2], the Typical equivalent strength is given as 10%.
